From patent US9156788B2, “TRPV3 modulators” (AbbVie Inc., priority 2010, dated 2015)

Each molecule was assayed against T1, human TRPV3 (Homo sapiens, UniProt Q8NET8) (assay: Calcium flux assay (FLIPR TETRA), inhibition of 2-APB response). Conditions: recombinant HEK293 cells stably expressing human TRPV3; 2-APB at its EC50.
T1 construct: expressed in transfected cells
T1 sequence (Q8NET8 1-790): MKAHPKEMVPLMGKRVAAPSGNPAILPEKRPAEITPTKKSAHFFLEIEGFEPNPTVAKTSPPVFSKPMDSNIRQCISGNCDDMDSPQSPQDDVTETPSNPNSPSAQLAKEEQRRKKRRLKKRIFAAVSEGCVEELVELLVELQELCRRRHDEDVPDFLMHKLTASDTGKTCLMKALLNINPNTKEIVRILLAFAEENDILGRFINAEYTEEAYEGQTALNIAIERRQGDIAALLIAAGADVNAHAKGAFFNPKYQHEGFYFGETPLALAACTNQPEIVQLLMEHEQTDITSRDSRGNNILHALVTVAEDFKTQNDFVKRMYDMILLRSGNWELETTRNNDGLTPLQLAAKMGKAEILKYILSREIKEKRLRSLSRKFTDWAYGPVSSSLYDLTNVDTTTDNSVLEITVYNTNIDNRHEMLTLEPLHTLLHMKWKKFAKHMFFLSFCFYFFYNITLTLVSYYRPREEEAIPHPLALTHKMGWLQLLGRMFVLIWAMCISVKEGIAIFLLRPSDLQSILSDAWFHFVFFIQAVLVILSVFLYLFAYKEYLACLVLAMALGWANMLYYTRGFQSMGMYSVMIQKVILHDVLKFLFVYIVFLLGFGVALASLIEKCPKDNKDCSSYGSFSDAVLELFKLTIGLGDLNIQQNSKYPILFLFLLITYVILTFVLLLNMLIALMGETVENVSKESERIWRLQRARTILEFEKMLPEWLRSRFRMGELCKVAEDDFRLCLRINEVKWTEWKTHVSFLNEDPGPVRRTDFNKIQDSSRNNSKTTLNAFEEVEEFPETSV
Type: cell-based
Protocol: (i) In Vitro Methods-Calcium Flux Assays:
Experiments were conducted using the FLIPR^TETRA®. On the day prior to the experiment, recombinant HEK293 cells that stably express human and mouse TRPV3 were removed from tissue culture flasks and plated in growth medium at 20,000 cells/well into black-walled clear-bottom 384-well Biocoat™ poly-D-lysine assay plates (BD Biosciences, Bedford, Mass.) using a Multidrop® dispenser (ThermoScientific, Waltham, Mass.). On the day of the experiment, growth medium was removed, and the no-wash FLIPR® Calcium-4 dye (λEX=470-495 nm, λEM=515-575 nm; Molecular Devices, Sunnyvale, Calif.) was added to each well using the Multidrop® dispenser. Cells were incubated for 90-120 minutes in the dark. Compounds were dissolved in DMSO to prepare a 10 mM stock solution. The intensity of the fluorescence was captured and digitally transferred to an interfaced PC. The peak increase in fluorescence over baseline (relative fluorescence units) was calculated and expressed as the percentage of the maximal 2-APB (2-aminoethoxyldiphenyl borate) response (in the absence of compound).

Row | Molecule | IC50 [µM]
1 | OC(c1ncccn1)C1(c2ccccc2F)CCC1 (centres unmarked) [Example 32, [1-(2-fluorophenyl)cyclobutyl](pyrimidin-2-yl)methanol] | 5.1 to 20
2 | CC(c1cccc(C(F)(F)F)c1)C1(C(O)c2ccccn2)CCC1 (centres unmarked) [Example 54, pyridin-2-yl(1-{1-[3-(trifluoromethyl)phenyl]ethyl}cyclobutyl)methanol] | 5.1 to 20
3 | OC(c1ccccn1)C1(c2ccncc2)CCC1 (centres unmarked) [Example 21, pyridin-2-yl(1-pyridin-4-ylcyclobutyl)methanol] | 5.1 to 20
4 | OC(c1ccccn1)C1(c2ccc(-c3ccccc3)cc2)CCC1 (centres unmarked) [Example 22, [1-(1,1′-biphenyl-4-yl)cyclobutyl](pyridin-2-yl)methanol] | 5.1 to 20
5 | OC(c1ccccn1)C1(c2cc(F)cc(C(F)(F)F)c2)CCC1 (centres unmarked) [Example 14, {1-[3-fluoro-5-(trifluoromethyl)phenyl]cyclobutyl}(pyridin-2-yl)methanol] | 5.1 to 20
6 | OC(c1ncccn1)C1(c2ccc(F)cc2)CCC1 (centres unmarked) [Example 34, [1-(4-fluorophenyl)cyclobutyl](pyrimidin-2-yl)methanol] | 5.1 to 20

Further lines, results first:

Row | IC50 [µM] | Molecule
7 | 0.501 to 1 | O[C@H](c1ccccn1)C1(c2ccc(C(F)(F)F)cc2F)CCC1 [Example 27, (S)-{1-[2-fluoro-4-(trifluoromethyl)phenyl]cyclobutyl}(pyridin-2-yl)methanol]
8 | 5.1 to 20 | O[C@H](c1ncccn1)C1(c2ccc(C(F)(F)F)cc2)CCC1 [Example 41, (S)-pyrimidin-2-yl{1-[4-(trifluoromethyl)phenyl]cyclobutyl}methanol]
9 | 5.1 to 20 | OC(c1ccccn1)C1(c2cccnc2)CCC1 (centres unmarked) [Example 20, pyridin-2-yl(1-pyridin-3-ylcyclobutyl)methanol]
10 | 5.1 to 20 | OC(c1ccccn1)C1(c2ccccn2)CCC1 (centres unmarked) [Example 19, pyridin-2-yl(1-pyridin-2-ylcyclobutyl)methanol]
11 | 1.1 to 5 | OC(c1ccccn1)C1(c2ccc(C(F)(F)F)c(F)c2)CCC1 (centres unmarked) [Example 17, {1-[3-fluoro-4-(trifluoromethyl)phenyl]cyclobutyl}(pyridin-2-yl)methanol]
12 | 5.1 to 20 | CS(=O)(=O)c1ccc(C2(C(O)c3ccccn3)CCC2)cc1 (centres unmarked) [Example 16, {1-[4-(methylsulfonyl)phenyl]cyclobutyl}(pyridin-2-yl)methanol]
13 | 1.1 to 5 | O[C@@H](c1ncccn1)C1(c2ccc(C(F)(F)F)cc2)CCC1 [Example 42, (R)-pyrimidin-2-yl{1-[4-(trifluoromethyl)phenyl]cyclobutyl}methanol]
14 | 1.1 to 5 | [1-(4-methylbenzyl)cyclobutyl](pyridin-2-yl)methanol [Example 52]
